From patent US8420574B2, “Plant growth enhancement with combinations of PESA and herbicides” (Valent BioSciences Corporation, priority 2009, dated 2013)
Structures can show the parent of a compound that is named as a salt.

Legend:
Assay type in all cases: in vivo
[1] = test system: rice cv. Cheniere; assay: Pouch assay with PESA salt seed treatment; root length; conditions: for Root Length: untreated 9.8
Description: Procedure for Treating Samples of Seed in the Laboratory
Seed was sieved with a screen of mesh size appropriate to remove broken seeds and small trash. Cracked or otherwise damaged seeds were removed. The seed was well mixed, and 50 g samples were weighed into small plastic trays. Seed treatment slurries were made by adding measured amounts of PESA or its salts and other AIs to sufficient water to bring them up to a standard volume, typically 2 ml. A fungicide (Maxim XL; Syngenta Agricultural Products, Greensboro, N.C.), a polymeric binder (CF-Clear; Becker-Underwood, Ames, Iowa), and a colorant (Color Coat Red; Becker-Underwood, Ames, Iowa) were also included in the slurry at label rates. A small aliquot of this slurry was applied to the seed using the Hege 11 coater (Wintersteiger, Salt Lake City, Utah) with a six-inch bowl at a slurry rate of 30 ounces per 100 lbs of seed. The slurry was deposited drop-wise on the spinning disk atomizer using a syringe.
After treatment, each seed sample was placed in plastic trays and dried at a room temperature for 20 to 60 minutes. The samples were then placed in small plastic bags. Samples were spot-checked using a water activity meter to make sure the water activity is below 0.7.
(§1) Seeds were placed in germination pouches consisting of germination paper hydrated with sterile water that was an insert in a gas-permeable 16×14 cm plastic pouch (CYG Pouch; Mega International, St. Paul, Minn.). In these examples, in pouch solution evaluation, PESA sodium salt or other active ingredients were added to the sterile water in the pouch. The pouches were arranged in a completely randomized block design in growth racks and placed in 19-liter polycarbonate food storage containers (Rubbermaid Commercial Products, Winchester, Va.). The sealed containers were held in an upright growth cabinet maintained at 25 C with a 12 hour light: 12 hour dark photoperiod. After 6 days, the containers were removed from the growth cabinet, and the lengths of the roots and shoot were measured.
Rice cv. Chemere was treated with PESA sodium salt prior to growing in the pouch. The treated seeds were then grown in the pouch in a dose-dependent series of trifluralin concentrations (Table 2). […] This confirms that seed treatment with the PESA salt protects or safens rice from the negative effects of trifluralin herbicide on root growth.

[2] = test system: rice cv. Nipponbare; assay: Hydroponic assay; total root length and shoot length; conditions: for Shoot Length / Total Root Length: 40 ppm PESA salt
Description: Where hydroponically-grown rice was used in studies, the seeds were pre-incubated in water at 30 C for 2 days to stimulate germination. Three seeds were placed on a float and cultivated hydroponically in a test tube (25 mm×200 mm), which contained 50 ml of Kimura B nutrient solution at ⅛th strength supplemented with herbicides and PESA sodium salt. The exposure of the roots to the light was prevented by wrapping the tubes with aluminum foil. The rice seedlings were incubated in a growth cabinet at 25 C under continuous light for 14 days, and the total root length and shoot length were measured. Total root length (cm) was the root length/plant determined following scanning with WinRhizo software (Regent Instruments INC, Toronto, Canada).

[3] = test system: cotton; assay: Pouch assay; root and shoot length of cotton; conditions: for Shoot Length / Root Length: 30 ppm PESA salt; for Shoot Length: untreated 4.7; for Root Length: untreated 7.7
Description: as §1

[4] = 40 ppm PESA salt with 0.1 ppm dicamba
[5] = 40 ppm PESA salt with 0.1 ppm imazosulfuron
[6] = 40 ppm PESA salt with 1 ppm flumioxazin

## O=C(O)CCC(=O)NCCc1ccccc1 [PESA salt, N-(2-phenylethyl)succinamic acid]
[1]; PESA salt seed treatment, trifluralin 50 ppm
  protection of root growth by seed treatment: significant protection against intermediate rates of trifluralin (50 ppm)
[1]; seed treatment 10 g PESA salt/100 lbs of seed, 0 ppm trifluralin
  Root Length: 10.7 cm
[1]; seed treatment 10 g PESA salt/100 lbs of seed, 50 ppm trifluralin
  Root Length: 4.6 cm
[1]; seed treatment 10 g PESA salt/100 lbs of seed, 100 ppm trifluralin
  Root Length: 0.3 cm
[1]; seed treatment 25 g PESA salt/100 lbs of seed, 0 ppm trifluralin
  Root Length: 10.1 cm
[1]; seed treatment 25 g PESA salt/100 lbs of seed, 50 ppm trifluralin
  Root Length: 5.2 cm
[1]; seed treatment 25 g PESA salt/100 lbs of seed, 100 ppm trifluralin
  Root Length: 0.3 cm
[1]; seed treatment 50 g PESA salt/100 lbs of seed, 0 ppm trifluralin
  Root Length: 10.3 cm
[1]; seed treatment 50 g PESA salt/100 lbs of seed, 50 ppm trifluralin
  Root Length: 6.0 cm
[1]; seed treatment 50 g PESA salt/100 lbs of seed, 100 ppm trifluralin
  Root Length: 0.3 cm
[2]; [4]
  protection of roots from herbicide: largely protected the roots from the negative effects of dicamba
  protection of shoots from herbicide: largely protected the shoots from the negative effects of dicamba
  total root length increased by, as compared with untreated control: 61%
[2]; [5]
  protection of roots from herbicide: largely protected the roots from the negative effects of imazosulfuron
  total root length increased by, as compared with untreated control: 87%
[2]; [6]
  protection of roots from herbicide: protected the roots from the negative effects of flumioxazin
  protection of shoots from herbicide: largely protected the shoots from the negative effects of flumioxazin
[2]; 40 ppm PESA salt with 1 ppm imazosulfuron
  protection of shoots from herbicide: largely protected the shoots from the negative effects of the herbicide
[2]; 40 ppm PESA salt with 3 ppm clodinafop-propargyl
  protection of roots from herbicide: protected the roots from the negative effects of the herbicide
[2]; 0 ppm clodinafop-propargyl, untreated 10.6
  Shoot Length: 13.3 cm
[2]; 0 ppm clodinafop-propargyl, untreated 52.1
  Total Root Length: 193.9 cm
[2]; 0 ppm dicamba, untreated 11.4
  Shoot Length: 15.1 cm
[2]; 0 ppm dicamba, untreated 44.9
  Total Root Length: 121.9 cm
[2]; 0 ppm flumioxazin, untreated 10.6
  Shoot Length: 13.3 cm
[2]; 0 ppm flumioxazin, untreated 52.1
  Total Root Length: 193.9 cm
[2]; 0 ppm imazosulfuron, untreated 11.4
  Shoot Length: 15.1 cm
[2]; 0 ppm imazosulfuron, untreated 44.9
  Total Root Length: 121.9 cm
[2]; 0.01 ppm dicamba, untreated 11.4
  Shoot Length: 15.1 cm
[2]; 0.01 ppm dicamba, untreated 44.9
  Total Root Length: 155.4 cm
[2]; 0.01 ppm imazosulfuron, untreated 11.4
  Shoot Length: 14.5 cm
[2]; 0.01 ppm imazosulfuron, untreated 44.9
  Total Root Length: 169.8 cm
[2]; 0.1 ppm dicamba, untreated 11.4
  Shoot Length: 12.5 cm
[2]; 0.1 ppm dicamba, untreated 44.9
  Total Root Length: 72.5 cm
[2]; 0.1 ppm flumioxazin, untreated 10.6
  Shoot Length: 12.3 cm
[2]; 0.1 ppm flumioxazin, untreated 52.1
  Total Root Length: 132.6 cm
[2]; 0.1 ppm imazosulfuron, untreated 11.4
  Shoot Length: 13.2 cm
[2]; 0.1 ppm imazosulfuron, untreated 44.9
  Total Root Length: 83.8 cm
[2]; 0.3 ppm clodinafop-propargyl, untreated 10.6
  Shoot Length: 14.3 cm
[2]; 0.3 ppm clodinafop-propargyl, untreated 52.1
  Total Root Length: 202.6 cm
[2]; 0.3 ppm flumioxazin, untreated 10.6
  Shoot Length: 10.3 cm
[2]; 0.3 ppm flumioxazin, untreated 52.1
  Total Root Length: 102.8 cm
[2]; 1 ppm clodinafop-propargyl, untreated 10.6
  Shoot Length: 13.6 cm
[2]; 1 ppm clodinafop-propargyl, untreated 52.1
  Total Root Length: 110.5 cm
[2]; 1 ppm dicamba, untreated 11.4
  Shoot Length: 3.6 cm
[2]; 1 ppm dicamba, untreated 44.9
  Total Root Length: 9.2 cm
[2]; 1 ppm flumioxazin, untreated 10.6
  Shoot Length: 7.5 cm
[2]; 1 ppm flumioxazin, untreated 52.1
  Total Root Length: 53 cm
[2]; 1 ppm imazosulfuron, untreated 11.4
  Shoot Length: 7.9 cm
[2]; 1 ppm imazosulfuron, untreated 44.9
  Total Root Length: 13.8 cm
[2]; 3 ppm clodinafop-propargyl, untreated 10.6
  Shoot Length: 11.8 cm
[2]; 3 ppm clodinafop-propargyl, untreated 52.1
  Total Root Length: 44.3 cm
[2]; 3 ppm flumioxazin, untreated 10.6
  Shoot Length: 6.5 cm
[2]; 3 ppm flumioxazin, untreated 52.1
  Total Root Length: 24.4 cm
[3]; 0 ppm chlorsulfuron
  Shoot Length: 5.2 cm
  Root Length: 14.0 cm
[3]; 1 ppm chlorsulfuron
  Shoot Length: 2.7 cm
  Root Length: 2.1 cm
[3]; 10 ppm chlorsulfuron
  Shoot Length: 1.7 cm
  Root Length: 2.0 cm
[3]; 100 ppm chlorsulfuron
  Shoot Length: 1.7 cm
  Root Length: 2.0 cm
[3]; PESA salt with chlorsulfuron
  protection of root length from herbicide: unable to overcome the negative effects of chlorsulfuron on root length
